Data: patent publication US4401660A, “Ester derivatives of 5-O-mycaminosyl tylonolide and method of using same” (Eli Lilly and Company, priority 1981, dated 1983)
Like-named read-outs stand apart in the source and are kept apart here.

Assays:
[1] = test system: Haemophilus influenzae Holt; assay: MIC, standard agar-dilution assay (Table II); type: cell-based; design: unit not given here; settings: ampicillin-sensitive strain
Description: (§1) The MIC's in Table II were determined by standard agar-dilution assays. The MIC's in Table III were obtained using a conventional broth-dilution microtiter test.

[2] = test system: Haemophilus influenzae R252; assay: MIC, standard agar-dilution assay (Table II); type: cell-based; design: unit not given here; settings: Haemophilus influenzae R252, ampicillin-resistant strain
Description: as §1

[3] = test system: Staphylococcus aureus S13E; assay: MIC, standard agar-dilution assay (Table II); type: cell-based; design: unit not given here
Description: as §1

[4] = test system: Staphylococcus aureus V41; assay: MIC, standard agar-dilution assay (Table II); type: cell-based; design: unit not given here; settings: Staphylococcus aureus V41, penicillin-resistant strain
Description: as §1

[5] = test system: Staphylococcus aureus X1.1; assay: MIC, standard agar-dilution assay (Table II); type: cell-based; design: unit not given here
Description: as §1

[6] = test system: Staphylococcus aureus X400; assay: MIC, standard agar-dilution assay (Table II); type: cell-based; design: unit not given here; settings: Staphylococcus aureus X400, methicillin-resistant strain
Description: as §1

[7] = test system: Staphylococcus epidermidis EPI1; assay: MIC, standard agar-dilution assay (Table II); type: cell-based; design: unit not given here
Description: as §1

[8] = test system: Staphylococcus epidermidis EPI2; assay: MIC, standard agar-dilution assay (Table II); type: cell-based; design: unit not given here
Description: as §1

[9] = test system: Streptococcus Group D 9960; assay: MIC, standard agar-dilution assay (Table II); type: cell-based; design: unit not given here
Description: as §1

[10] = test system: Streptococcus Group D X66; assay: MIC, standard agar-dilution assay (Table II); type: cell-based; design: unit not given here
Description: as §1

[11] = test system: Streptococcus pneumoniae Park I; assay: MIC, standard agar-dilution assay (Table II); type: cell-based; design: unit not given here
Description: as §1

[12] = test system: Streptococcus pyogenes C203; assay: MIC, standard agar-dilution assay (Table II); type: cell-based; design: unit not given here
Description: as §1

Mycoplasma gallisepticum = assay: MIC, broth-dilution microtiter test (Table III); type: cell-based; design: unit not given here
Description: as §1

Mycoplasma hyorhinis = assay: MIC, broth-dilution microtiter test (Table III); type: cell-based; design: unit not given here
Description: as §1

Mycoplasma synoviae = assay: MIC, broth-dilution microtiter test (Table III); type: cell-based; design: unit not given here
Description: as §1

[13] = test system: Pasteurella haemolytica 22C; assay: MIC, broth-dilution microtiter test (Table III); type: cell-based; design: unit not given here
Description: as §1

[14] = test system: Pasteurella haemolytica 23C; assay: MIC, broth-dilution microtiter test (Table III); type: cell-based; design: unit not given here
Description: as §1

[15] = test system: Pasteurella haemolytica 41D; assay: MIC, broth-dilution microtiter test (Table III); type: cell-based; design: unit not given here
Description: as §1

[16] = test system: Pasteurella multocida 17E; assay: MIC, broth-dilution microtiter test (Table III); type: cell-based; design: unit not given here; settings: bovine isolate
Description: as §1

[17] = test system: Pasteurella multocida 22A; assay: MIC, broth-dilution microtiter test (Table III); type: cell-based; design: unit not given here
Description: as §1

[18] = test system: Pasteurella multocida 40G; assay: MIC, broth-dilution microtiter test (Table III); type: cell-based; design: unit not given here
Description: as §1

[19] = test system: Pasteurella multocida 60A; assay: MIC, broth-dilution microtiter test (Table III); type: cell-based; design: unit not given here; settings: avian isolate
Description: as §1

[20] = test system: Pasteurella multocida 68C; assay: MIC, broth-dilution microtiter test (Table III); type: cell-based; design: unit not given here
Description: as §1

Staphylococcus aureus = assay: MIC, broth-dilution microtiter test (Table III); type: cell-based; design: unit not given here
Description: as §1

Streptococcus sp. 80 = assay: MIC, broth-dilution microtiter test (Table III); type: cell-based; design: unit not given here
Description: as §1

[21] = test system: Streptococcus pyogenes C203; assay: ED50 in mice with experimental infections (Table IV); type: in vivo; settings: Streptococcus pyogenes, doses given 1 and 4 hours postinfection
Outline: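 Read-out is ED50, the mg/kg dose protecting half of infected mice; values refer to each of two doses, given 1 and 4 hours after infection.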

Pasteurella multocida = assay: Treatment of Pasteurella infections in chicks (Table V); type: in vivo, one-day-old chicks; settings: Pasteurella multocida, sc, 4 h; 30 mg/kg by subcutaneous injection one and four hours post challenge; read-out: Deaths in Treated Chicks/Number Treated (converted)
Outline: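 Dosing was 30 mg/kg by subcutaneous injection, one and four hours after challenge. Day-old chicks received 0.1 ml of a 10^-3 dilution of a 20-hour tryptose broth culture of avian P. multocida subcutaneously. Nonmedicated infected chicks served as controls, ten per group.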

[22] = C203, oral, read-out: ED50, Oral
[23] = C203, sc, subcutaneous, read-out: ED50, Subcutaneous

SMILES | minimal inhibitory concentration (MIC) [1] | minimal inhibitory concentration (MIC) [2] | minimal inhibitory concentration (MIC) [3] | minimal inhibitory concentration (MIC) [4] | minimal inhibitory concentration (MIC) [5] | minimal inhibitory concentration (MIC) [6] | minimal inhibitory concentration (MIC) [7] | minimal inhibitory concentration (MIC) [8] | minimal inhibitory concentration (MIC) [9] | minimal inhibitory concentration (MIC) [10] | minimal inhibitory concentration (MIC) [11] | minimal inhibitory concentration (MIC) [12] | minimal inhibitory concentration (MIC) (Mycoplasma gallisepticum) | minimal inhibitory concentration (MIC) (Mycoplasma hyorhinis) | minimal inhibitory concentration (MIC) (Mycoplasma synoviae) | minimal inhibitory concentration (MIC) [13] | minimal inhibitory concentration (MIC) [14] | minimal inhibitory concentration (MIC) [15] | minimal inhibitory concentration (MIC) [16] | minimal inhibitory concentration (MIC) [17] | other results
CCC1OC(=O)CC(O)C(C)C(OC2OC(C)C(O)C(N(C)C)C2O)C(CC=O)CC(C)C(=O)C=CC(C)=CC1COC(=O)C(C)(C)C (stereo not shown) [Compound 68] | 1 | 2 | 0.25 | 0.25 | 0.25 | 0.25 | 0.25 | 0.25 | 0.25 | 0.25 | 0.06 | 0.125 | 0.097 | 0.097 | < 0.048 | 6.25 | 3.12 | 6.25 | 3.12 | 3.12 | minimal inhibitory concentration (MIC) [18]: 3.12; minimal inhibitory concentration (MIC) [19]: 3.12; minimal inhibitory concentration (MIC) [20]: 1.56; minimal inhibitory concentration (MIC) (Staphylococcus aureus): 1.56; minimal inhibitory concentration (MIC) (Streptococcus sp. 80): < 0.78; ED50 [21, 22]: > 100 mg/kg; ED50 [21, 23]: 3.8 mg/kg; mortality at 30 mg/kg (Pasteurella multocida): 0%
CCC1OC(=O)CC(O)C(C)C(OC2OC(C)C(O)C(N(C)C)C2O)C(CC=O)CC(C)C(=O)C=CC(C)=CC1COC(=O)CCCC(=O)OC (stereo not shown) [Compound 72] | 2 | 1 | 0.25 | 0.25 | 0.125 | 0.25 | 0.25 | 0.25 | 0.25 | 0.25 | 0.03 | 0.125 | 0.195 | 25 | 0.78 | 12.5 | 6.25 | 12.5 | 6.25 | 3.12 | minimal inhibitory concentration (MIC) [18]: 3.12; minimal inhibitory concentration (MIC) [19]: 3.12; minimal inhibitory concentration (MIC) [20]: 3.12; minimal inhibitory concentration (MIC) (Staphylococcus aureus): 1.56; minimal inhibitory concentration (MIC) (Streptococcus sp. 80): 1.56; ED50 [21, 22]: 87 mg/kg; ED50 [21, 23]: 2.3 mg/kg; mortality at 30 mg/kg (Pasteurella multocida): 50%
CCC1OC(=O)CC(O)C(C)C(OC2OC(C)C(OC(=O)CC(C)C)C(N(C)C)C2OC(C)=O)C(CC=O)CC(C)C(=O)C=CC(C)=CC1CO (stereo not shown) [Compound 49, 2'-O-Acetyl-4'-O-isovaleryl-OMT] | 1 | 1 | 2 | 2 | 1 | 4 | 1 | 2 | 1 | 1 | 0.125 | 0.25 | 1.56 | 6.25 | 0.78 | 12.5 | 12.5 | 12.5 | 3.12 | 6.25 | minimal inhibitory concentration (MIC) [18]: 3.12; minimal inhibitory concentration (MIC) [19]: 3.12; minimal inhibitory concentration (MIC) [20]: 25; minimal inhibitory concentration (MIC) (Staphylococcus aureus): 3.12; minimal inhibitory concentration (MIC) (Streptococcus sp. 80): 0.39; ED50 [21, 22]: > 100 mg/kg; ED50 [21, 23]: > 30 mg/kg; mortality at 30 mg/kg (Pasteurella multocida): 100%
CCC1OC(=O)CC(O)C(C)C(OC2OC(C)C(OC(C)=O)C(N(C)C)C2OC(C)=O)C(CC=O)CC(C)C(=O)C=CC(C)=CC1CO (stereo not shown) [Compound 3, 2',4'-Di-O-acetyl-OMT] | 2 | 4 | 2 | 4 | 2 | 4 | 1 | 1 | 2 | 2 | 0.25 | 0.5 | 0.78 | 3.12 | 0.195 | 12.5 | 6.25 | 6.25 | 3.12 | 3.12 | minimal inhibitory concentration (MIC) [18]: 6.25; minimal inhibitory concentration (MIC) [19]: 3.12; minimal inhibitory concentration (MIC) [20]: 1.56; minimal inhibitory concentration (MIC) (Staphylococcus aureus): 1.56; minimal inhibitory concentration (MIC) (Streptococcus sp. 80): < 0.78; ED50 [21, 22]: 139 mg/kg; ED50 [21, 23]: > 15 mg/kg; mortality at 30 mg/kg (Pasteurella multocida): 0%
